Measured values reported in PMC4887716 (Iranian Journal of Basic Medical Sciences, 2016).
Where two headings read alike, the source gives them in different places.

Columns and labels:
P-gp [1] = experiment: In situ single pass intestinal perfusion; conditions: for increase of digoxin Peff: in situ SPIP
[2] = cited from earlier work
P-gp [3] = conditions: MDR-MDCK cells; cited from earlier work
P-gp [4] = conditions: cited from earlier work
[5] = cited from earlier work; remark: listed apart in the source
Caco-2 cells = experiment: In vitro cytotoxicity study; type: cell-based, human; conditions: clemastine 0.01-10 µM, 24 hr incubation

Row | SMILES | Peff of digoxin alone (control) (P-gp [1]; 20 µM digoxin, rat jejunum SPIP) | increase of digoxin Peff (P-gp [1]; 0.5 µM clemastine) | increase of digoxin Peff (P-gp [1]; 10 µM clemastine) | solubility in water [2] | P-gp substrate status from efflux in presence of cyclosporine-A (P-gp [3]) | P-gp substrate classification (P-gp [4]) | elimination half-life [5] | therapeutic level in blood plasma [5] | therapeutic level in blood plasma ([5]; converted from ng/ml) | cytotoxic effect on Caco-2 cells (cell viability, MTT) (Caco-2 cells)
1 | C[C@H]1O[C@@H](O[C@H]2[C@@H](O)C[C@H](O[C@H]3[C@@H](O)C[C@H](O[C@H]4CC[C@@]5(C)[C@H](CC[C@@H]6[C@@H]5C[C@@H](O)[C@]5(C)[C@@H](C7=CC(=O)OC7)CC[C@]65O)C4)O[C@@H]3C)O[C@@H]2C)C[C@H](O)[C@@H]1O [digoxin] | 3.4±0.8 ×10^-5cm/s | – | – | – | – | – | – | – | – | –
2 | CN1CCC[C@@H]1CCO[C@](C)(c1ccccc1)c1ccc(Cl)cc1 [clemastine] | – | about 65% | ~165% | very slightly soluble in water | clemastine is a P-gp substrate | non-P-gp-substrate | approximately 21 hr | 0.7 to 2 ng/mL | 1.5 to 4.4 nM | no cytotoxic effect
